Reference: patent publication US20020111274A1, “1-alkyl-3-[1-(substituted phenyl) benzotriazol-6-yl] uracils” (BASF Aktiengesellschaft, priority 2000, published 2002)

Key:
Set-up in all cases: scale not given here
ABUTH Velvetleaf [1] = assay: Postemergence herbicidal evaluation, ABUTH; format: in vivo, Abutilon theophrasti, Medic.; settings: postemergence spray, rated about two-three weeks after treatment
Procedure, shortened: (§1)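 For this test, compound in an 80/20 acetone/water vehicle with 1.0% seed oil was sprayed over two-week-old seedlings at about 0.006 to 0.400 kg per hectare. Injury was assessed visually two to three weeks on.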

AMBEL Ragweed, Common [2] = assay: Postemergence herbicidal evaluation, AMBEL; format: in vivo, Ambrosia artemisifolia, L.; settings: postemergence spray, rated about two-three weeks after treatment
Procedure, shortened: as §1

CASOB Sicklepod [3] = assay: Postemergence herbicidal evaluation, CASOB; format: in vivo, Cassia obtusifolia, L.; settings: postemergence spray, rated about two-three weeks after treatment
Procedure, shortened: as §1

[4] = test system: CHEAL Lambsquarters, Common; assay: Postemergence herbicidal evaluation, CHEAL; format: in vivo, Chenopodium album, L.; settings: postemergence spray, rated about two-three weeks after treatment
Procedure, shortened: as §1

ECHOG Barnyardgrass [5] = assay: Postemergence herbicidal evaluation, ECHOG; format: in vivo, Echinochloa crus-galli, (L.) Beau; settings: postemergence spray, rated about two-three weeks after treatment
Procedure, shortened: as §1

GALAP Galium [6] = assay: Postemergence herbicidal evaluation, GALAP; format: in vivo, Galium aparine; settings: postemergence spray, rated about two-three weeks after treatment
Procedure, shortened: as §1

[7] = test system: IPOHE Morningglory, Ivyleaf; assay: Postemergence herbicidal evaluation, IPOHE; format: in vivo, Ipomoea hederacea, (L.) Jacq.; settings: postemergence spray, rated about two-three weeks after treatment
Procedure, shortened: as §1

SETVI Foxtail, Green [8] = assay: Postemergence herbicidal evaluation, SETVI; format: in vivo, Setaria viridis, (L.) Beau; settings: postemergence spray, rated about two-three weeks after treatment
Procedure, shortened: as §1

GLXMAW Soybean, Williams [9] = assay: Postemergence herbicidal evaluation, GLXMAW; format: in vivo, Glycine max, (L.) Merr. cv Williams; settings: postemergence spray, rated about two-three weeks after treatment
Procedure, shortened: as §1

[10] = test system: TRZAWR Wheat, Winter, cv Riband; assay: Postemergence herbicidal evaluation, TRZAWR; format: in vivo, Triticum aestivum; settings: postemergence spray, rated about two-three weeks after treatment
Procedure, shortened: as §1

ORYSAT Rice, Tebonnet [11] = assay: Postemergence herbicidal evaluation, ORYSAT; format: in vivo, Oryza sativa, (L.); settings: postemergence spray, rated about two-three weeks after treatment
Procedure, shortened: as §1

ZEAMX Corn, Field [12] = assay: Postemergence herbicidal evaluation, ZEAMX; format: in vivo, Zea mays, L. (Sammel-Bezeichnung); settings: postemergence spray, rated about two-three weeks after treatment
Procedure, shortened: as §1

ABUTH Velvetleaf [13] = assay: Preemergence herbicidal evaluation, ABUTH; format: in vivo, Abutilon theophrasti, Medic.; settings: preemergence
Procedure, shortened: (§2)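 Seeds mixed with potting soil were planted on about one inch of soil in cups, then sprayed with the test compound in aqueous acetone at roughly 0.013 to 0.800 kg per hectare. Plants were kept under standard greenhouse care and injury was rated four to five weeks after treatment.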

AMBEL Ragweed, Common [14] = assay: Preemergence herbicidal evaluation, AMBEL; format: in vivo, Ambrosia artemisifolia, L.; settings: preemergence
Procedure, shortened: as §2

CASOB Sicklepod [15] = assay: Preemergence herbicidal evaluation, CASOB; format: in vivo, Cassia obtusifolia, L.; settings: preemergence
Procedure, shortened: as §2

[16] = test system: CHEAL Lambsquarters, Common; assay: Preemergence herbicidal evaluation, CHEAL; format: in vivo, Chenopodium album, L.; settings: preemergence
Procedure, shortened: as §2

ECHOG Barnyardgrass [17] = assay: Preemergence herbicidal evaluation, ECHOG; format: in vivo, Echinochloa crus-galli, (L.) Beau; settings: preemergence
Procedure, shortened: as §2

GALAP Galium [18] = assay: Preemergence herbicidal evaluation, GALAP; format: in vivo, Galium aparine; settings: preemergence
Procedure, shortened: as §2

[19] = test system: IPOHE Morningglory, Ivyleaf; assay: Preemergence herbicidal evaluation, IPOHE; format: in vivo, Ipomoea hederacea, (L.) Jacq.; settings: preemergence
Procedure, shortened: as §2

SETVI Foxtail, Green [20] = assay: Preemergence herbicidal evaluation, SETVI; format: in vivo, Setaria viridis, (L.) Beau; settings: preemergence
Procedure, shortened: as §2

GLXMAW Soybean, Williams [21] = assay: Preemergence herbicidal evaluation, GLXMAW; format: in vivo, Glycine max, (L.) Merr. cv Williams; settings: preemergence
Procedure, shortened: as §2

[22] = test system: TRZAWR Wheat, Winter, cv Riband; assay: Preemergence herbicidal evaluation, TRZAWR; format: in vivo, Triticum aestivum; settings: preemergence
Procedure, shortened: as §2

ORYSAT Rice, Tebonnet [23] = assay: Preemergence herbicidal evaluation, ORYSAT; format: in vivo, Oryza sativa, (L.); settings: preemergence
Procedure, shortened: as §2

ZEAMX Corn, Field [24] = assay: Preemergence herbicidal evaluation, ZEAMX; format: in vivo, Zea mays, L. (Sammel-Bezeichnung); settings: preemergence
Procedure, shortened: as §2

SMILES: Cc1ccc(-n2nnc3cc(F)c(-n4c(=O)cc(C(F)(F)F)n(C)c4=O)cc32)cc1 [Example 19]
- Postemergence herbicidal rating ABUTH (ABUTH Velvetleaf [1]; 0.008 kg/ha): 9.0
- Postemergence herbicidal rating ABUTH (ABUTH Velvetleaf [1]; 0.016 kg/ha): 9.0
- Postemergence herbicidal rating ABUTH (ABUTH Velvetleaf [1]; 0.032 kg/ha): 9.0
- Postemergence herbicidal rating ABUTH (ABUTH Velvetleaf [1]; 0.062 kg/ha): 9.0
- Postemergence herbicidal rating AMBEL (AMBEL Ragweed, Common [2]; 0.008 kg/ha): 0.0
- Postemergence herbicidal rating AMBEL (AMBEL Ragweed, Common [2]; 0.016 kg/ha): 1.0
- Postemergence herbicidal rating AMBEL (AMBEL Ragweed, Common [2]; 0.032 kg/ha): 4.0
- Postemergence herbicidal rating AMBEL (AMBEL Ragweed, Common [2]; 0.062 kg/ha): 5.0
- Postemergence herbicidal rating CASOB (CASOB Sicklepod [3]; 0.008 kg/ha): 0.0
- Postemergence herbicidal rating CASOB (CASOB Sicklepod [3]; 0.016 kg/ha): 0.0
- Postemergence herbicidal rating CASOB (CASOB Sicklepod [3]; 0.032 kg/ha): 2.0
- Postemergence herbicidal rating CASOB (CASOB Sicklepod [3]; 0.062 kg/ha): 2.0
- Postemergence herbicidal rating CHEAL ([4]; 0.008 kg/ha): 1.0
- Postemergence herbicidal rating CHEAL ([4]; 0.016 kg/ha): 2.0
- Postemergence herbicidal rating CHEAL ([4]; 0.032 kg/ha): 3.0
- Postemergence herbicidal rating CHEAL ([4]; 0.062 kg/ha): 5.0
- Postemergence herbicidal rating ECHCG (ECHOG Barnyardgrass [5]; 0.008 kg/ha): 0.0
- Postemergence herbicidal rating ECHCG (ECHOG Barnyardgrass [5]; 0.016 kg/ha): 0.0
- Postemergence herbicidal rating ECHCG (ECHOG Barnyardgrass [5]; 0.032 kg/ha): 0.0
- Postemergence herbicidal rating ECHCG (ECHOG Barnyardgrass [5]; 0.062 kg/ha): 0.0
- Postemergence herbicidal rating GALAP (GALAP Galium [6]; 0.008 kg/ha): 0.0
- Postemergence herbicidal rating GALAP (GALAP Galium [6]; 0.016 kg/ha): 3.0
- Postemergence herbicidal rating GALAP (GALAP Galium [6]; 0.032 kg/ha): 4.0
- Postemergence herbicidal rating GALAP (GALAP Galium [6]; 0.062 kg/ha): 4.0
- Postemergence herbicidal rating IPOHE ([7]; 0.008 kg/ha): 4.0
- Postemergence herbicidal rating IPOHE ([7]; 0.016 kg/ha): 4.0
- Postemergence herbicidal rating IPOHE ([7]; 0.032 kg/ha): 9.0
- Postemergence herbicidal rating IPOHE ([7]; 0.062 kg/ha): 9.0
- Postemergence herbicidal rating SETVI (SETVI Foxtail, Green [8]; 0.008 kg/ha): 0.0
- Postemergence herbicidal rating SETVI (SETVI Foxtail, Green [8]; 0.016 kg/ha): 0.0
- Postemergence herbicidal rating SETVI (SETVI Foxtail, Green [8]; 0.032 kg/ha): 0.0
- Postemergence herbicidal rating SETVI (SETVI Foxtail, Green [8]; 0.062 kg/ha): 3.0
- Postemergence herbicidal rating GLXMAW (GLXMAW Soybean, Williams [9]; 0.008 kg/ha): 4.5
- Postemergence herbicidal rating GLXMAW (GLXMAW Soybean, Williams [9]; 0.016 kg/ha): 5.5
- Postemergence herbicidal rating GLXMAW (GLXMAW Soybean, Williams [9]; 0.032 kg/ha): 6.5
- Postemergence herbicidal rating GLXMAW (GLXMAW Soybean, Williams [9]; 0.062 kg/ha): 7.5
- Postemergence herbicidal rating TRZAWR ([10]; 0.008 kg/ha): 2.5
- Postemergence herbicidal rating TRZAWR ([10]; 0.016 kg/ha): 3.5
- Postemergence herbicidal rating TRZAWR ([10]; 0.032 kg/ha): 4.0
- Postemergence herbicidal rating TRZAWR ([10]; 0.062 kg/ha): 4.5
- Postemergence herbicidal rating ORYSAT (ORYSAT Rice, Tebonnet [11]; 0.008 kg/ha): 2.0
- Postemergence herbicidal rating ORYSAT (ORYSAT Rice, Tebonnet [11]; 0.016 kg/ha): 2.5
- Postemergence herbicidal rating ORYSAT (ORYSAT Rice, Tebonnet [11]; 0.032 kg/ha): 3.0
- Postemergence herbicidal rating ORYSAT (ORYSAT Rice, Tebonnet [11]; 0.062 kg/ha): 4.0
- Postemergence herbicidal rating ZEAMX (ZEAMX Corn, Field [12]; 0.008 kg/ha): 4.5
- Postemergence herbicidal rating ZEAMX (ZEAMX Corn, Field [12]; 0.016 kg/ha): 4.5
- Postemergence herbicidal rating ZEAMX (ZEAMX Corn, Field [12]; 0.032 kg/ha): 5.0
- Postemergence herbicidal rating ZEAMX (ZEAMX Corn, Field [12]; 0.062 kg/ha): 5.5
- ABUTH herbicidal rating (ABUTH Velvetleaf [13]; rate 0.016 kg/ha): 1.0
- ABUTH herbicidal rating (ABUTH Velvetleaf [13]; rate 0.032 kg/ha): 6.5
- ABUTH herbicidal rating (ABUTH Velvetleaf [13]; rate 0.062 kg/ha): 9.0
- ABUTH herbicidal rating (ABUTH Velvetleaf [13]; rate 0.125 kg/ha): 9.0
- AMBEL herbicidal rating (AMBEL Ragweed, Common [14]; rate 0.016 kg/ha): 4.5
- AMBEL herbicidal rating (AMBEL Ragweed, Common [14]; rate 0.032 kg/ha): 5.5
- AMBEL herbicidal rating (AMBEL Ragweed, Common [14]; rate 0.062 kg/ha): 8.0
- AMBEL herbicidal rating (AMBEL Ragweed, Common [14]; rate 0.125 kg/ha): 9.0
- CASOB herbicidal rating (CASOB Sicklepod [15]; rate 0.016 kg/ha): 1.0
- CASOB herbicidal rating (CASOB Sicklepod [15]; rate 0.032 kg/ha): 1.5
- CASOB herbicidal rating (CASOB Sicklepod [15]; rate 0.062 kg/ha): 1.5
- CASOB herbicidal rating (CASOB Sicklepod [15]; rate 0.125 kg/ha): 1.0
- CHEAL herbicidal rating ([16]; rate 0.016 kg/ha): 9.0
- CHEAL herbicidal rating ([16]; rate 0.032 kg/ha): 9.0
- CHEAL herbicidal rating ([16]; rate 0.062 kg/ha): 9.0
- CHEAL herbicidal rating ([16]; rate 0.125 kg/ha): 9.0
- ECHCG herbicidal rating (ECHOG Barnyardgrass [17]; rate 0.016 kg/ha): 0.5
- ECHCG herbicidal rating (ECHOG Barnyardgrass [17]; rate 0.032 kg/ha): 4.0
- ECHCG herbicidal rating (ECHOG Barnyardgrass [17]; rate 0.062 kg/ha): 7.0
- ECHCG herbicidal rating (ECHOG Barnyardgrass [17]; rate 0.125 kg/ha): 9.0
- GALAP herbicidal rating (GALAP Galium [18]; rate 0.016 kg/ha): 0.0
- GALAP herbicidal rating (GALAP Galium [18]; rate 0.032 kg/ha): 0.0
- GALAP herbicidal rating (GALAP Galium [18]; rate 0.062 kg/ha): 0.0
- GALAP herbicidal rating (GALAP Galium [18]; rate 0.125 kg/ha): 9.0
- IPOHE herbicidal rating ([19]; rate 0.016 kg/ha): 1.0
- IPOHE herbicidal rating ([19]; rate 0.032 kg/ha): 1.5
- IPOHE herbicidal rating ([19]; rate 0.062 kg/ha): 5.5
- IPOHE herbicidal rating ([19]; rate 0.125 kg/ha): 8.0
- SETVI herbicidal rating (SETVI Foxtail, Green [20]; rate 0.016 kg/ha): 4.5
- SETVI herbicidal rating (SETVI Foxtail, Green [20]; rate 0.032 kg/ha): 7.0
- SETVI herbicidal rating (SETVI Foxtail, Green [20]; rate 0.062 kg/ha): 9.0
- SETVI herbicidal rating (SETVI Foxtail, Green [20]; rate 0.125 kg/ha): 9.0
- GLXMAW herbicidal rating (GLXMAW Soybean, Williams [21]; rate 0.016 kg/ha): 0.5
- GLXMAW herbicidal rating (GLXMAW Soybean, Williams [21]; rate 0.032 kg/ha): 1.5
- GLXMAW herbicidal rating (GLXMAW Soybean, Williams [21]; rate 0.062 kg/ha): 2.5
- GLXMAW herbicidal rating (GLXMAW Soybean, Williams [21]; rate 0.125 kg/ha): 4.0
- TRZAWR herbicidal rating ([22]; rate 0.016 kg/ha): 0.0
- TRZAWR herbicidal rating ([22]; rate 0.032 kg/ha): 1.0
- TRZAWR herbicidal rating ([22]; rate 0.062 kg/ha): 2.0
- TRZAWR herbicidal rating ([22]; rate 0.125 kg/ha): 3.0
- ORYSAT herbicidal rating (ORYSAT Rice, Tebonnet [23]; rate 0.016 kg/ha): 0.0
- ORYSAT herbicidal rating (ORYSAT Rice, Tebonnet [23]; rate 0.032 kg/ha): 0.5
- ORYSAT herbicidal rating (ORYSAT Rice, Tebonnet [23]; rate 0.062 kg/ha): 1.5
- ORYSAT herbicidal rating (ORYSAT Rice, Tebonnet [23]; rate 0.125 kg/ha): 2.0
- ZEAMX herbicidal rating (ZEAMX Corn, Field [24]; rate 0.016 kg/ha): 1.0
- ZEAMX herbicidal rating (ZEAMX Corn, Field [24]; rate 0.032 kg/ha): 1.5
- ZEAMX herbicidal rating (ZEAMX Corn, Field [24]; rate 0.062 kg/ha): 4.0
- ZEAMX herbicidal rating (ZEAMX Corn, Field [24]; rate 0.125 kg/ha): 6.5
